According to patent publication US20090054389A1, “Topical Composition Comprising an Antibacterial Substance” (Leo Pharma A/S, priority 2006, published 2009):

Legend:
[1] = In vitro skin penetration study (Franz diffusion cells, radiolabelled compositions); settings: barrier-impaired skin; versus fusidic acid in a monoglyceride composition, or versus composition without stabilising agent
[2] = system: intracellular and extracellular M. leprae; settings: cited from earlier work

degree of retention in dermis and epidermis, comparison [1]	Structure (SMILES)	potency against M. leprae [2]
significantly higher	CC(=O)O[C@H]1C[C@@]2(C)[C@@H](C[C@@H](O)[C@H]3[C@@]4(C)CC[C@@H](O)[C@@H](C)[C@@H]4CC[C@@]32C)/C1=C(\CCC(Br)=C(C)C)C(=O)O [11-^3H 24-bromo-fusidic acid, 24-Bromo-fusidic acid]	
	CC(=O)O[C@H]1C[C@@]2(C)[C@@H](C[C@@H](O)[C@H]3[C@@]4(C)CC[C@@H](O)[C@@H](C)[C@@H]4CC[C@@]32C)/C1=C(\CCC=C(C)C)C(=O)O [fusidic acid, Fusidic acid]	highly potent
